# Tests used:
# Type in all cases: in vivo
# [1] = tested on: giant foxtail (Setaria faberi); assay: Test G Post-Emergence Protocol; settings: Setaria faberi, post-emergence, 312 h, read-out: Foxtail, Giant damage rating
# Procedure, shortened: (§1)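 Seedlings grown 8 days in soil in a glasshouse (24/16 °C day/night, 14 h light, 65% humidity) were sprayed post-emergence with compound in acetone/water 50:50 plus 0.5% Tween 20 at 15.625, 62.5 or 250 g/ha. Damage was scored after 13 days on a 0–100 scale (100 = total damage).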
# [2] = tested on: velvetleaf (Abutilon theophrasti); assay: Test G Post-Emergence Protocol; settings: Abutilon theophrasti, post-emergence, 312 h, read-out: Velvetleaf damage rating
# Procedure, shortened: as §1
# [3] = tested on: redroot pigweed (Amaranthus retroflexus); assay: Test G Post-Emergence Protocol; settings: Amaranthus retroflexus, post-emergence, 312 h, read-out: Pigweed, Redroot damage rating
# Procedure, shortened: as §1
# [4] = tested on: ivy-leaved morning glory (Ipomoea hederacea); assay: Test G Post-Emergence Protocol; settings: Ipomoea, post-emergence, 312 h, read-out: Morningglory, Ivy-leaved damage rating
# Procedure, shortened: as §1
# [5] = tested on: corn (Zea mays); assay: Test G Post-Emergence Protocol; settings: Zea mays, post-emergence, 312 h, read-out: Corn damage rating
# Procedure, shortened: as §1
# [6] = tested on: barnyardgrass (Echinochloa crus-galli); assay: Test G Post-Emergence Protocol; settings: Echinochloa crus-galli, post-emergence, 312 h, read-out: Barnyardgrass damage rating
# Procedure, shortened: as §1
# [7] = tested on: giant foxtail (Setaria faberi); assay: Test G Pre-Emergence Protocol; settings: Setaria faberi, pre-emergence, 312 h, evaluated after 13 days
# Procedure, shortened: (§2)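 Visual injury (0–100) at day 13 after a single pre-emergence spray. Rates: 15.625, 62.5, 250 g/ha in acetone–water 50:50 with 0.5% Tween 20. Growth conditions: 24/16° C, 14 h light, 65% humidity.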
# [8] = tested on: velvetleaf (Abutilon theophrasti); assay: Test G Pre-Emergence Protocol; settings: Abutilon theophrasti, pre-emergence, 312 h, evaluated after 13 days
# Procedure, shortened: as §2
# [9] = tested on: redroot pigweed (Amaranthus retroflexus); assay: Test G Pre-Emergence Protocol; settings: Amaranthus retroflexus, pre-emergence, 312 h, evaluated after 13 days
# Procedure, shortened: as §2
# [10] = tested on: ivy-leaved morning glory (Ipomoea hederacea); assay: Test G Pre-Emergence Protocol; settings: Ipomoea, pre-emergence, 312 h, evaluated after 13 days
# Procedure, shortened: as §2
# [11] = tested on: corn (Zea mays); assay: Test G Pre-Emergence Protocol; settings: Zea mays, pre-emergence, 312 h, evaluated after 13 days
# Procedure, shortened: as §2
# [12] = tested on: barnyardgrass (Echinochloa crus-galli); assay: Test G Pre-Emergence Protocol; settings: Echinochloa crus-galli, pre-emergence, 312 h, evaluated after 13 days
# Procedure, shortened: as §2
# [13] = 15.625 g ai/ha, evaluated after 13 days (100=total damage to plant; 0=no damage to plant)
# [14] = 62.5 g ai/ha, evaluated after 13 days, 100=total damage to plant, 0=no damage to plant
# [15] = 250 g ai/ha, evaluated after 13 days, 100=total damage to plant, 0=no damage to plant
compound,measurement,setting,value
CN1C[C@H](c2ccnc(C(C)(C)C)n2)[C@@H](C(=O)Nc2cccc(F)c2F)C1=O (racemic) [Compound 1769],pest or weed control at 15.625 g/ha,[1]; [13],0%
same,pest or weed control at 62.5 g/ha,[1]; [14],10%
same,pest or weed control at 250 g/ha,[1]; [15],60%
same,pest or weed control at 15.625 g/ha,[2]; [13],0%
same,pest or weed control at 62.5 g/ha,[2]; [14],0%
same,pest or weed control at 250 g/ha,[2]; [15],0%
same,pest or weed control at 15.625 g/ha,[3]; [13],0%
same,pest or weed control at 62.5 g/ha,[3]; [14],0%
same,pest or weed control at 250 g/ha,[3]; [15],0%
same,pest or weed control at 15.625 g/ha,[4]; [13],0%
same,pest or weed control at 62.5 g/ha,[4]; [14],0%
same,pest or weed control at 250 g/ha,[4]; [15],20%
same,plant injury at 15.625 g/ha,[5]; [13],0%
same,plant injury at 62.5 g/ha,[5]; [14],0%
same,plant injury at 250 g/ha,[5]; [15],10%
same,pest or weed control at 15.625 g/ha,[6]; [13],0%
same,pest or weed control at 62.5 g/ha,[6]; [14],0%
same,pest or weed control at 250 g/ha,[6]; [15],50%
same,pest or weed control at 15.625 g/ha,"[7]; 15.625 g ai/ha, read-out: Foxtail, Giant damage rating (100=total damage to plant; 0=no damage to plant)",20%
same,pest or weed control at 62.5 g/ha,"[7]; 62.5 g ai/ha, 100=total damage to plant, 0=no damage to plant, read-out: Foxtail, Giant damage rating",40%
same,pest or weed control at 250 g/ha,"[7]; 250 g ai/ha, read-out: Foxtail, Giant damage rating (100=total damage to plant; 0=no damage to plant)",90%
same,pest or weed control at 15.625 g/ha,"[8]; 15.625 g ai/ha, read-out: Velvetleaf damage rating (100=total damage to plant; 0=no damage to plant)",0%
same,pest or weed control at 62.5 g/ha,"[8]; 62.5 g ai/ha, 100=total damage to plant, 0=no damage to plant, read-out: Velvetleaf damage rating",0%
same,pest or weed control at 250 g/ha,"[8]; 250 g ai/ha, read-out: Velvetleaf damage rating (100=total damage to plant; 0=no damage to plant)",0%
same,pest or weed control at 15.625 g/ha,"[9]; 15.625 g ai/ha, read-out: Pigweed, Redroot damage rating (100=total damage to plant; 0=no damage to plant)",0%
same,pest or weed control at 62.5 g/ha,"[9]; 62.5 g ai/ha, 100=total damage to plant, 0=no damage to plant, read-out: Pigweed, Redroot damage rating",0%
same,pest or weed control at 250 g/ha,"[9]; 250 g ai/ha, read-out: Pigweed, Redroot damage rating (100=total damage to plant; 0=no damage to plant)",0%
same,pest or weed control at 15.625 g/ha,"[10]; 15.625 g ai/ha, read-out: Morningglory, Ivy-leaved damage rating (100=total damage to plant; 0=no damage to plant)",0%
same,pest or weed control at 62.5 g/ha,"[10]; 62.5 g ai/ha, 100=total damage to plant, 0=no damage to plant, read-out: Morningglory, Ivy-leaved damage rating",0%
same,pest or weed control at 250 g/ha,"[10]; 250 g ai/ha, read-out: Morningglory, Ivy-leaved damage rating (100=total damage to plant; 0=no damage to plant)",0%
same,plant injury at 15.625 g/ha,"[11]; 15.625 g ai/ha, read-out: Corn damage rating (100=total damage to plant; 0=no damage to plant)",0%
same,plant injury at 62.5 g/ha,"[11]; 62.5 g ai/ha, 100=total damage to plant, 0=no damage to plant, read-out: Corn damage rating",0%
same,plant injury at 250 g/ha,"[11]; 250 g ai/ha, read-out: Corn damage rating (100=total damage to plant; 0=no damage to plant)",0%
same,pest or weed control at 15.625 g/ha,"[12]; 15.625 g ai/ha, read-out: Barnyardgrass damage rating (100=total damage to plant; 0=no damage to plant)",0%
same,pest or weed control at 62.5 g/ha,"[12]; 62.5 g ai/ha, 100=total damage to plant, 0=no damage to plant, read-out: Barnyardgrass damage rating",20%
same,pest or weed control at 250 g/ha,"[12]; 250 g ai/ha, read-out: Barnyardgrass damage rating (100=total damage to plant; 0=no damage to plant)",70%

# — patent US12077503B2, “Substituted cyclic amides and their use as herbicides” (FMC CORPORATION, priority 2015, dated 2024)
